Data as given in ChEMBL document CHEMBL1139761, “Synthesis and optimization of novel and selective muscarinic M(3) receptor antagonists” (Bioorg Med Chem Lett, 2007).

Experiments:
[1] = target: Muscarinic acetylcholine receptor M3 (Rattus norvegicus, UniProt P08483); experiment: Displacement of [3H]N-methylscopolamine from muscarinic M3 receptor in rat submandibular gland; assay type: tissue-based
[2] = target: T1, Muscarinic acetylcholine receptor M2 (Rattus norvegicus, UniProt P10980); experiment: Displacement of [3H]N-methylscopolamine from muscarinic M2 receptor in rat heart
T1 sequence (P10980 whole entry): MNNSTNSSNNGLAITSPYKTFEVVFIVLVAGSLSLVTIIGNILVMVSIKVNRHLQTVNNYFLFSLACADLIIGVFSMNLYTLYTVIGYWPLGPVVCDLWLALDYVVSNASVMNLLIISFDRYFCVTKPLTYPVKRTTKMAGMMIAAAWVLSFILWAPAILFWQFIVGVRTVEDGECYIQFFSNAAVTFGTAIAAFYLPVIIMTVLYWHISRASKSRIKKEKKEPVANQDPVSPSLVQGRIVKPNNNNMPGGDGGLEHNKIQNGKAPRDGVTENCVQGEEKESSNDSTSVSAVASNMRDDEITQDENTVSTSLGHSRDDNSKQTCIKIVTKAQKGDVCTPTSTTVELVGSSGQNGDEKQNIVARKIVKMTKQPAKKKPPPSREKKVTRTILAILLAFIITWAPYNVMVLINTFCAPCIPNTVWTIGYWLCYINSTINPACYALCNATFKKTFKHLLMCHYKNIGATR

Chain of Muscarinic acetylcholine receptor M3 (P08483 whole entry): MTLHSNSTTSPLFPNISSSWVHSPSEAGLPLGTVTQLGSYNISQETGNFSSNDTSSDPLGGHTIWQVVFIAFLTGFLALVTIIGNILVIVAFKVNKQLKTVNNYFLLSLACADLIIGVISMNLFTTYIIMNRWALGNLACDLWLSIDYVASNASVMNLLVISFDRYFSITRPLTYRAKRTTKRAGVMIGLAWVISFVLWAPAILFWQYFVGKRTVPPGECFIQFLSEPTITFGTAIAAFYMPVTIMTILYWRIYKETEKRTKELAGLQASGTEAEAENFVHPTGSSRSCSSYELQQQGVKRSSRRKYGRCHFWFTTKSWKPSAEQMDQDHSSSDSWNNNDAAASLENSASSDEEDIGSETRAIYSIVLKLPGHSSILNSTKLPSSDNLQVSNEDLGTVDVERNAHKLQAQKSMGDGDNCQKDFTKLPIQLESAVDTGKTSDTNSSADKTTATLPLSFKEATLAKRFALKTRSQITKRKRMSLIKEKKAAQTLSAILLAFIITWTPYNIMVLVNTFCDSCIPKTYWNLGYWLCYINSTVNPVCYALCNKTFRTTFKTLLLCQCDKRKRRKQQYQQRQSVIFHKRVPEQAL

| Structure (SMILES) | Ki [1] [nM] | Ki [2] [nM] |
| --- | --- | --- |
| O=C(N[C@H]1[C@@H]2CN(CCCc3ccccc3)C[C@@H]21)C(O)(c1ccccc1)C1CCCC1 (some centres undefined) | 776 | 2630 |
| O=C(N[C@H]1[C@@H]2CN(Cc3ccccc3)C[C@@H]21)C(O)(c1ccccc1)C1CCCCCC1 (some centres undefined) | 6.8 | 349 |
| O=C(N[C@H]1[C@@H]2CN(Cc3ccccc3)C[C@@H]21)C(O)c1ccccc1 (some centres undefined) | > 1000 | > 1000 |
| CC(c1ccccc1)N1C[C@@H]2[C@H](C1)[C@H]2NC(=O)C(O)(c1ccccc1)C1CCCC1 (some centres undefined) | 25.1 | 630 |
| CC(c1ccccc1)N1C[C@@H]2[C@H](C1)[C@H]2NC(=O)C(O)(c1ccccc1)C1CCCCCC1 (some centres undefined) | 1.8 | 39 |
| O=C(N[C@H]1[C@@H]2CN(Cc3cccs3)C[C@@H]21)C(O)(c1ccccc1)C1CCCC1 (some centres undefined) | 524 | 3980 |
| Cc1ccc(C(C)N2C[C@@H]3[C@H](C2)[C@H]3NC(=O)C(O)(c2ccccc2)C2CCCC2)cc1 (some centres undefined) | 58.9 | 1230 |
| O=C(N[C@H]1[C@@H]2CN(CCc3ccc(Cl)cc3)C[C@@H]21)C(O)(c1ccccc1)C1CCCC1 (some centres undefined) | 31.3 | 298 |
| COC(=O)c1ccc(CCN2C[C@@H]3[C@H](C2)[C@H]3NC(=O)C(O)(c2ccccc2)C2CCCC2)cc1 (some centres undefined) | 43.6 | 537 |
| O=C(N[C@H]1[C@@H]2CN(CCc3ccc4c(c3)OCO4)C[C@@H]21)C(O)(c1ccccc1)C1CCCC1 (some centres undefined) | 20 | 277 |
| O=C(N[C@H]1[C@@H]2CN(Cc3ccc4ccccc4c3)C[C@@H]21)C(O)(c1ccccc1)C1CCCC1 (some centres undefined) | 42 | 778 |
| O=C(N[C@H]1[C@@H]2CN(CCc3ccccc3)C[C@@H]21)C(O)(c1ccccc1)C1CCCC1 (some centres undefined) | 9.3 | 335 |
| CC(C)=CCCN1C[C@@H]2[C@H](C1)[C@H]2NC(=O)C(O)(c1ccccc1)C1CCCC1 (some centres undefined) | 33 | 1370 |
| CC(C)=CCCN1C[C@@H]2[C@H](C1)[C@H]2NC(=O)[C@@](O)(c1ccccc1)C1CCCC1 | 71 | 1140 |
| O=C(N[C@H]1[C@@H]2CN(Cc3ccccc3)C[C@@H]21)C(O)(c1ccccc1)C1CCCC1 (some centres undefined) | 96 | 1420 |
| O=C(N[C@H]1[C@@H]2CN(CCc3ccc4c(c3)OCO4)C[C@@H]21)[C@](O)(c1ccccc1)C1CCCC1 | 12.3 | 646 |
| O=C(N[C@H]1[C@@H]2CN(Cc3ccccc3)C[C@@H]21)C(O)(c1ccccc1)C1CCCCC1 (some centres undefined) | 31.7 | 943 |
| Cc1ccc(CCN2C[C@@H]3[C@H](C2)[C@H]3NC(=O)C(O)(c2ccccc2)C2CCCC2)cc1C (some centres undefined) | 43.6 | 812 |
| CC(c1ccccc1)N1C[C@@H]2[C@H](C1)[C@H]2NC(=O)C(O)(c1ccccc1)C1CCCCC1 (some centres undefined) | 5.9 | 154 |
| NC(=O)C(c1ccccc1)(c1ccccc1)[C@@H]1CCN(CCc2ccc3c(c2)CCO3)C1 [DARIFENACIN] |  | 63 |
